In US20190358176A1, “METHODS OF SENSITIZING CANCER CELLS TO IMMUNE CELL KILLING” (University of Pittsburgh - of the Commonwealth System of …, priority 2017, published 2019):

What was measured:
rat hepatocytes = experiment: Five-day hepatocyte toxicity (PI positive cells); format: cell-based; settings: rat hepatocytes, 5-day exposure
Method: Rat hepatocytes were isolated using standard two step collagenase digestion (15) and sub-cultivated at 14,000 hepatocytes/well in collagen-1 coated 384 well plates in Williams E Medium supplemented with 10% FBS, 2 mM L-glutamine and 50 U/ml Penicillin and streptomycin. After 4 hours, medium was decanted and replaced with Hepatocyte Maintenance Media (Williams E supplemented with 1.25 mg/ml bovine serum albumin, 6.25 μg/ml human insulin, 100 nM dexamethasone, 6.25 μg/ml human transferrin, 6.25 ng/ml selenous acid, 2 mM L-glutamine, 15 mM HEPES, 100 U/mL penicillin, and 100 U/mL streptomycin). After overnight culture, cells were treated with concentration gradients of test agents. One hour after compound addition, cells were labeled with 200 nM TMRE and 4 μg/ml Hoechst 33342 for 45 min, imaged live on an ArrayScan VTI using a 10× objective, and images were analyzed with the Compartmental Bioapplication. Mitochondria were identified as cytosolic spots by size and brightness. The final parameter was % HIGH RingSpotAvgIntenCh2 (i.e., percentage of cells with TMRE puncta in the cytoplasm based on a threshold set with vehicle treated cells).
A gelling solution of 1.25 mg/ml rat tail collagen type I in pH 7.2 90:10 (v/v) Williams E media/10×HBSS was overlaid onto the rat hepatocytes. The collagen gel was incubated for 1 hour at 37° C., 5% CO2. The collagen sandwich cultures were then challenged for 5 days to test compounds in Hepatocyte Maintenance Media, without refeeding. A 10× solution of 40 μg/ml Hoechst 33342 was added during the final 2 hours of incubation followed by a 10× solution of 20 μg/ml PI for 1 hour. Cells were imaged and the percentage of PI positive cells calculated as above.

[1] = system: ERK, JNK/SAPK, p38, MEK1 and MKK4/SEK1 phosphorylation; experiment: Western blot of MAPK cascade phosphorylation; format: cell-based, human; settings: 20 μM
MDA-MB-231 cells = experiment: HCA of cell motility and cytotoxicity (Oris Pro 384 cell migration plate); format: cell-based, human; settings: 48 hours, at antimigratory concentrations
Method: HCA of cell motility and cytotoxicity was performed essentially as described (51). MDA-MB-231 cells (15,000/well) were plated in collagen-coated Oris™ Pro 384-well microplates (Platypus Technologies cat # PRO384CMACCS) containing a chemical exclusion zone that dissolves upon cell seeding. Two hours after plating, medium was removed, and cells treated with ten-point, two-fold concentration gradients of test agents. Forty-eight hours after treatment, cells were stained with 10 μg/ml Hoechst 33342 and 1 μg/ml PI in HBSS for 15 min at 37° C. Plates were washed once with PBS and scanned live on the ArrayScan II using a 5× objective. To capture cells that had entered into the exclusion zone, a single field was acquired in the center of the well and nuclei therein enumerated. To assess changes in cell loss, nuclear size, and necrotic cell death, a second scan was performed that captured one field at the edge of the well (51). Parameters exported and plotted were SelectedObjectCountPerValidField (cell density), MEAN ObjectAreaCh1 (nucleus size), and % RESPONDER MeanAvgIntenCh2 (percent PI positive cells based on based on a threshold set with vehicle treated cells).

[2] = system: DUSP6/MKP-3 and DUSP1/MKP-1; settings: HeLa cells, prior study (12); cited from earlier work
zebrafish embryos = experiment: ROS generation in zebrafish embryos (DHE); format: in vivo; settings: developing zebrafish embryos, 48 hpf
Method: All procedures involving zebrafish were reviewed and approved by the University of Pittsburgh Institutional Animal Care and Use Committee. Wildtype AB* embryos were kept in E3 medium (5 mM NaCl, 0.17 mM KCl, 0.33 mM CaCl2, 0.33 mM MgSO4). At 48 hours post fertilization (hpf), embryos were arrayed into the wells of a 96 well microplate and treated with vehicle (0.5% DMSO) or test agents. After a 30-min pre-incubation, embryos were labeled with a solution of 10 μM DHE and 40 μg/mL MS222 (tricaine methanesulfonate, Sigma) in E3 to restrict movement during imaging. Six hours after DHE loading, embryos were imaged on an ArrayScan II using a 2.5× objective. Images were analyzed for oxyethidium fluorescence with the TargetActivation Bioapplication using the MEAN_ObjectAvgIntenCh1 parameter.

SMILES: O=C1/C(=C/c2ccccc2)C(NC2CCCCC2)c2cc(Br)ccc21 (stereo not drawn) [BCI-215]
- hepatocyte toxicity, cell death (PI positive cells) (rat hepatocytes): completely devoid of hepatocyte toxicity up to 100
- activation of upstream kinases MEK1 and MKK4/SEK1 ([1]; MDA-MB-231, BT-20 and HeLa, 1 hour): activated MEK1 and MKK4/SEK1
- activation (phosphorylation) of ERK, JNK/SAPK and p38 ([1]; MDA-MB-231 cells): activated all three kinases
- necrosis (% PI positive cells) (MDA-MB-231 cells): no signs of necrosis
- effect on ectopic DUSP6/MKP-3 and DUSP1/MKP-1 expression [2]: override the effects
- generation of ROS in zebrafish embryos (DHE) (zebrafish embryos): does not Generate Reactive Oxygen Species
